Results taken from patent US10620188B2, “Using impedance-based cell response profiling to identify putative inhibitors for oncogene addicted targets or pathways” (ACEA Biosciences, Inc., priority 2002, dated 2020).
Where two headings read alike, the source gives them in different places.

Legend:
SH-SY5Y = experiment: Impedance-based TCRP of SH-SY5Y cells, mutant ALK (F1174L); assay type: cell-based, human; conditions: for TCRP (Cell Index response): 10 uM; for IC50: mutant ALK (F1174L), long-term (72 hours post compound treatment) CI
Text: (§1) The cell index was normalized at time of compound addition.
The cell index (CI) was normalized at time of compound addition. […] DMSO was served as solvent control.
The cell index was normalized at time of compound addition. DMSO at the same dose was served as solvent control.
(§2) The cell index (CI) was normalized at time of compound addition.

H1993 = experiment: Impedance-based TCRP of Met addicted H1993 cells (xCelligence); assay type: cell-based, human; conditions: for TCRP (Cell Index response): increasing concentrations; for IC50: read-out: IC50 (TCRP)
Experimental: as §1
Cells were treated with ACEA348 (0-10 uM) for 30 min.
as §2
The time-dependent cell response profiles (TCRP) were monitored prior to and after the compound addition using the xCelligence system (ACEA Biosciences/Roche applied sciences).
The Cell index was normalized against the cell index values at a time point just before compound addition. […] EC50 and IC50 of the Met inhibitor can be derived from the CI versus the corresponding log concentration of the inhibitor.

10T1/2 tva-H1047R = experiment: Impedance-based TCRP of 10T1/2 tva-H1047R cells expressing human p110α (H1047R); assay type: cell-based, mouse; conditions: 10T1/2 tva-H1047R; serum starved; from 0 to 10 uM
Experimental: (§3) Cells were serum starved for 5 hour. The cell index was normalized at time of compound addition. At the indicated time point of treatment, increasing concentrations of PI103 (0-10 uM) was added to the cells and the cell responses were monitored.
as §2
A mouse fibroblast 10T1/2 expressing the cell-surface receptor TVA, which is specific for subgroup-A avian retroviruses was used. […] A549 is a human lung cancer cell line expressing wild-type p110α. T47D and BT20 are human breast cancer cell lines expressing mutant p110α (T47D) and p110α (P539R/H1047R), respectively.
(§4) Then the normal growth medium (10% FBS) was exchanged with medium containing 0% FBS. The cells were incubated for additional 5 hours before compound treatment. A PI3K inhibitor (PI103) at different concentrations in DMSO was added into wells following the incubation period. The cell status was monitored prior to and after the compound addition using xCelligence system (Roche applied sciences). […] Cell index of the cells treated with solvent DMSO control was used as baseline. The Cell index was normalized against the cell index values at a time point just before compound addition.

10T1/2 tva = experiment: Impedance-based TCRP of control cell line 10T1/2 tva; design: species or system mouse; conditions: 10T1/2 tva control cell line; from 0 to 10 uM
Experimental: as §3, §2
A mouse fibroblast 10T1/2 expressing the cell-surface receptor TVA, which is specific for subgroup-A avian retroviruses was used.
as §4

H1975 [1] = experiment: EGF-stimulated CI increase in H1975 cells; assay type: cell-based; conditions: Homo sapiens
A431 [2] = experiment: Impedance-based TCRP of A431 cells, constitutive EGFR activation; assay type: cell-based; conditions: for IC50: Homo sapiens, read-out: IC50 (TCRP, constitutive activation)
Experimental: as §2
A431 cells were seeded into wells of 96 well E-plate devices (Roche applied sciences) with an initial seeding density of 20,000 cells per well and were pre-incubated in incubator with DMEM medium plus 2% FBS over night. […] DMSO at the same dose was served as solvent control. […] The IC50s derived from this experiment evaluate the inhibition of these inhibitors to this basal activation of EGFR (caused by dimerization without EGF stimulation)

A431 [3] = experiment: EGF-stimulated CI increase in A431 cells; assay type: cell-based; conditions: Homo sapiens
Experimental: A431 cells were seeded at 20,000 cells per well of 96-well E-plate (Roche/ACEA) with 2% fetal bovine serum. The cells were continuously monitored using xCelligence system (Roche/ACEA). […] The cell index was normalized at time of EGF addition.
To further evaluate the efficacies of these EFGR inhibitors, we tested the inhibitory effect of these inhibitors on the EGF stimulated response using impedance-based technology (FIG. 15). In this experiment, A431 cells were seeded at 20,000 cells per well of 96-well E-plate (Roche/ACEA) with 2% fetal bovine serum. The cells were continuously monitored using xCelligence system (Roche/ACEA). […] The cell index was normalized at time of EGF addition.

H1975 [4] = experiment: Impedance-based TCRP of H1975 cells, constitutive EGFR activation; assay type: cell-based; conditions: for IC50: Homo sapiens, read-out: IC50 (TCRP, constitutive activation)
Experimental: as §2
H1975 cells were seeded at 3,000 cells per well of 96-well E-plate (Roche/ACEA) in RPMI1640 medium with 1% fetal bovine serum. […] The cell index (CI) was normalized at time of compound addition.

PDGFRβ = target: T1, PDGFRβ (Rattus norvegicus, UniProt Q05030); experiment: Western analysis of PDGFR signaling pathway in C6 cells; assay type: cell-based
T1 construct: endogenous in cells; host or cells: C6 rat glioma cells
T1 sequence (Q05030 32-1097): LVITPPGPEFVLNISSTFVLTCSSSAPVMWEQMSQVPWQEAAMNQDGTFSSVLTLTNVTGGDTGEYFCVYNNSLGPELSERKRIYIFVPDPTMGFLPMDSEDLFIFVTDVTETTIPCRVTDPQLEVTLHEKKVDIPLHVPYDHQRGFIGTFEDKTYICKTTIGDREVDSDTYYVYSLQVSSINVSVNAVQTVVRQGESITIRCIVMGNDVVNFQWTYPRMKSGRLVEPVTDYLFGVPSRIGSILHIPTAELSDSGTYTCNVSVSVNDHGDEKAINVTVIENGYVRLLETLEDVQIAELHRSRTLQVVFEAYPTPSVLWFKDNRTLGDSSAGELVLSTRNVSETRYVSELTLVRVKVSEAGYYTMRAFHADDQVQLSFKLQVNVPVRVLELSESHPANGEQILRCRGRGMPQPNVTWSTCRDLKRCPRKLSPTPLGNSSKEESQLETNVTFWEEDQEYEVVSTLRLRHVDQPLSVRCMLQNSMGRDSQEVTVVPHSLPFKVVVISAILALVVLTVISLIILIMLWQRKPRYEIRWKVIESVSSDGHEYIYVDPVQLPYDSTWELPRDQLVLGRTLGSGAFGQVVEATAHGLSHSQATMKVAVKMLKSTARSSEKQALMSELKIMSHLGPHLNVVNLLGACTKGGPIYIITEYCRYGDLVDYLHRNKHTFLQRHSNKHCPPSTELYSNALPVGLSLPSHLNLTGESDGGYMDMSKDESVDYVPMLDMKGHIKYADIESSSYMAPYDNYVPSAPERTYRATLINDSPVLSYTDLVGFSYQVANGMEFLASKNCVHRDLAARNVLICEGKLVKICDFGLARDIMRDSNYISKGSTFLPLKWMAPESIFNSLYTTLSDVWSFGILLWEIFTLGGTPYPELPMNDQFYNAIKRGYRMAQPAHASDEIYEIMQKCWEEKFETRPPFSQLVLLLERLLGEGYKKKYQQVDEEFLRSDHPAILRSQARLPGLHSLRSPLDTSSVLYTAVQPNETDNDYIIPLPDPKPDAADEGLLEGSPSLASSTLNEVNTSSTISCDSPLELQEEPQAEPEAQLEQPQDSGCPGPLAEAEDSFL

HCC827 = experiment: Impedance-based TCRP of HCC827 cells, mutant EGFR (Del E746_A750); assay type: cell-based
Experimental: as §2
Kinase inhibitors including EGFR inhibitors at different concentrations in DMSO were added into wells following the incubation period. The cell status was monitored prior to and after the compound addition using xCelligence system (Roche applied sciences). The Cell index was normalized against the cell index values at a time point just before compound addition.

C6 = experiment: Impedance-based TCRP of PDGFR addicted C6 glioma cells; assay type: cell-based, rat; conditions: for TCRP (Cell Index response): increasing concentrations; for IC50: Rattus norvegicus, read-out: IC50 (TCRP)
Experimental: as §2
Kinase inhibitors including PDGFR inhibitors at different concentrations in DMSO were added into wells following the incubation period. The cell status was monitored prior to and after the compound addition using xCelligence system (Roche applied sciences). […] The Cell index was normalized against the cell index values at a time point just before compound addition.
IC50 of the PDGFR inhibitor can be derived from the CI versus the corresponding log concentration of the inhibitor.

SK-MEL-28 = experiment: Impedance-based TCRP of SK-MEL-28, b-Raf (V600E) addicted melanoma cells; assay type: cell-based, human
Experimental: as §1
(A) The impedance-based time-dependent cellular profiles (TCRPs) of SK-MEL28 in response to b-Raf inhibitor on xCelligence system (Roche/ACEA). […] The cell index (CI) was normalized at time of the compound addition. At the indicated time point of treatment (arrow), increasing concentrations of b-Raf inhibitor (from 0 to 10 uM) were added to the cells and the cell response was monitored. […] (B) EC50 of b-Raf derived from impedance-based TCRP.
as §2
Cell lines. […] The time-dependent cell response profiles (TCRP) were monitored prior to and after the compound addition using the xCelligence system (ACEA Biosciences/Roche applied sciences).
Kinase inhibitors including b-Raf inhibitors at different concentrations in DMSO were added into wells following the incubation period. The cell status was monitored prior to and after the compound addition using xCelligence system (Roche applied sciences). […] The Cell index was normalized against the cell index values at a time point just before compound addition.

[5] = NCI-H1975, H1975, inhibitor 1 hour, then EGF 30 ng/ml, Normalized Cell Index at 30 minutes after EGF, estimated, read-out: IC50 (TCRP, ligand stimulated)
[6] = C6, Long-term (96 hours post compound treatment) CI

Row | Molecule | TCRP (Cell Index response) (H1993; H1993) | TCRP (Cell Index response) (10T1/2 tva-H1047R) | TCRP (Cell Index response) (10T1/2 tva) | further results
1 | COc1cc2ncnc(Nc3cccc(Cl)c3)c2cc1OC [AG1478] |  |  |  | TCRP (Cell Index response) (SH-SY5Y): None trigged a TCRP representative to that trigger by ALK inhibitors
2 | O=c1[nH]c2ccccc2n1C1CCN(Cc2ccc(-c3nc4cc5[nH]cnc5cc4nc3-c3ccccc3)cc2)CC1 [AKT inhibitor VIII] | None of these inhibitors induced a TCRP similar to PF2341006 | cell index decreases in both the control cell line and H1047R cell line | cell index decreases in both the control cell line and H1047R cell line | 
3 | Cn1c(=O)n(-c2ccc(C(C)(C)C#N)cc2)c2c3cc(-c4cnc5ccccc5c4)ccc3ncc21 [BEZ235] | None of these inhibitors induced a TCRP similar to PF2341006 | triggered 10T1/2-tva-H1047R specific cell index drop | not present in the control cell line 10T1/2-tva | 
4 | CN(C)C/C=C/C(=O)Nc1cc2c(Nc3ccc(F)c(Cl)c3)ncnc2cc1O[C@H]1CCOC1 [BIBW2992] |  |  |  | IC50 (H1975 [1]; NCI-H1975, read-out: IC50 (TCRP, ligand stimulated)): ~0.2 µM
5 | CN([C@@H](Cc1ccc(OS(=O)(=O)c2cccc3cnccc23)cc1)C(=O)N1CCN(c2ccccc2)CC1)S(=O)(=O)c1cccc2cnccc12 [CaM kinase inhibitor] |  | did not introduce significant cell index changes in either cell line | did not introduce significant cell index changes in either cell line | 
6 | C=CC(=O)Nc1cc2c(Nc3ccc(F)c(Cl)c3)ncnc2cc1OCCCN1CCOCC1 [Canertinib] |  |  |  | TCRP (Cell Index response) (A431 [2]; A431, from 0 to 20 uM): dose-dependent short-term and long-term decrease in Cell Index; IC50 (A431 [2]; A-431, 72 h): 0.357 µM; IC50 (A431 [3]; A-431, read-out: IC50 (TCRP, ligand stimulated)): < 0.027 µM; TCRP (Cell Index response) (H1975 [4]; H1975, from 0 to 20 uM): dose-dependent short-term and long-term decrease in Cell Index; IC50 (H1975 [4]; NCI-H1975, 72 h): 0.396 µM; IC50 (H1975 [1]; [5]): ~0.15 µM
7 | O=c1cc(CN2CCOCC2)occ1OCCCCCSc1ccnc2cc(C(F)(F)F)ccc12 [EHT1864] | None of these inhibitors induced a TCRP similar to PF2341006 |  |  | 
8 | CC1=C(C(=O)Nc2cc3cn[nH]c3cc2F)C(c2ccc(C(F)(F)F)cc2)CC(=O)N1 (stereo not shown) [GSK429286] | None of these inhibitors induced a TCRP similar to PF2341006 |  |  | 
9 | CNC(=O)c1c(F)cccc1Nc1nc(Nc2cc3c(cc2OC)CCN3C(=O)CN(C)C)nc2[nH]ccc12 [GSK1838705A] |  |  |  | IC50 (SH-SY5Y): 0.137 µM
10 | O=C1Nc2ccc(I)cc2/C1=C/c1cc(Br)c(O)c(Br)c1 [GW5074] | None of these inhibitors induced a TCRP similar to PF2341006 | cell index decreases in both the control cell line and H1047R cell line | cell index decreases in both the control cell line and H1047R cell line | 
11 | Cc1ccc(NC(=O)c2ccc(CN3CCN(C)CC3)cc2)cc1Nc1nccc(-c2cccnc2)n1 [Imatinib] |  |  |  | phospho-MAPK (Western) (PDGFRβ; downstream target of PDGFR): down-regulated; PDGFRβ autophosphorylation (Western) (PDGFRβ; phospho-PDGFRβ (Y1021)): effectively inhibited
12 | CCCCCCOC(=O)[C@]1(O)C[C@@H]2O[C@@]1(C)n1c3ccccc3c3c4c(c5c6ccccc6n2c5c31)C(=O)NC4 [KT5720] |  | did not introduce significant cell index changes in either cell line | did not introduce significant cell index changes in either cell line | 
13 | COC(=O)[C@@]1(OC)C[C@H]2O[C@]1(C)n1c3ccccc3c3c4c(c5c6ccccc6n2c5c31)C(=O)N(C)C4 [KT5823] |  | did not introduce significant cell index changes in either cell line | did not introduce significant cell index changes in either cell line | 
14 | COc1ccc(-c2ccc3c(N4CCOCC4)nc(N4C[C@@H](C)O[C@@H](C)C4)nc3n2)cc1CO [KU0063794] | None of these inhibitors induced a TCRP similar to PF2341006 | triggered 10T1/2-tva-H1047R specific cell index drop | not present in the control cell line 10T1/2-tva | 
15 | CS(=O)(=O)CCNCc1ccc(-c2ccc3ncnc(Nc4ccc(OCc5cccc(F)c5)c(Cl)c4)c3c2)o1 [Lapatinib] |  |  |  | IC50 (HCC827; Homo sapiens, HCC827, 96 h, read-out: IC50 (TCRP)): 0.0388 µM
16 | Cc1ccc(NC(=O)c2ccc(CN3CCN(C)CC3)cc2)cc1Nc1nc(-c2cccnc2)cs1 [Masitinib] | None of these inhibitors induced a TCRP similar to PF2341006 |  |  | TCRP (Cell Index response) (C6; C6): dose-dependent short-term increase (to a various degree) and long-term decrease in Cell Index; IC50 (C6; [6]): 0.487 µM; TCRP (Cell Index response, cell growth) (HCC827; HCC827, increasing concentrations): did not inhibit HCC827 cell growth
17 | COc1cc(N2CCC(N3CCN(C)CC3)CC2)ccc1Nc1ncc(Cl)c(Nc2ccccc2S(=O)(=O)C(C)C)n1 [NVP-TAE684] |  |  |  | IC50 (SH-SY5Y; Homo sapiens): 0.0104 µM
18 | COc1cccc(-c2cc(=O)c3ccccc3o2)c1N [PD98059] | None of these inhibitors induced a TCRP similar to PF2341006 | did not introduce significant cell index changes in either cell line | did not introduce significant cell index changes in either cell line | 
19 | C[C@@H](Oc1cc(-c2cnn(C3CCNCC3)c2)cnc1N)c1c(Cl)ccc(F)c1Cl [PF02341066, Crizotinib] |  |  |  | IC50 (H1993; Homo sapiens, NCI-H1993, 200 h): 0.00323 µM; EC50 (H1993; Homo sapiens, NCI-H1993, H1993, short-term (10 hours post compound treatment) CI): 0.002 µM; IC50 (H1993): 0.00187 µM
20 | Oc1ccc(-c2nc(-c3ccncc3)c(-c3ccc(F)cc3)[nH]2)cc1 [SB202190] | None of these inhibitors induced a TCRP similar to PF2341006 | did not introduce significant cell index changes in either cell line | did not introduce significant cell index changes in either cell line | 
21 | C[S+]([O-])c1ccc(-c2nc(-c3ccncc3)c(-c3ccc(F)cc3)[nH]2)cc1 (stereo not shown) [SB203580] | None of these inhibitors induced a TCRP similar to PF2341006 |  |  | 
22 | CN[C@@H]1C[C@H]2O[C@@](C)([C@@H]1OC)n1c3ccccc3c3c4c(c5c6ccccc6n2c5c31)C(=O)NC4 [Staurosporine] |  | cell index decreases in both the control cell line and H1047R cell line | cell index decreases in both the control cell line and H1047R cell line | 
23 | CCN(CC)CCNC(=O)c1c(C)[nH]c(/C=C2\C(=O)Nc3ccc(F)cc32)c1C [Sunitinib] |  |  |  | IC50 (C6; [6]): 0.0422 µM
24 | CO[C@H]1C[C@@H]2CC[C@@H](C)[C@@](O)(O2)C(=O)C(=O)N2CCCC[C@H]2C(=O)O[C@H]([C@H](C)C[C@@H]2CC[C@@H](OC(=O)C(C)(CO)CO)[C@H](OC)C2)CC(=O)[C@H](C)/C=C(\C)[C@@H](O)[C@@H](OC)C(=O)[C@H](C)C[C@H](C)/C=C/C=C/C=C/1C [Temsirolimus] |  | triggered 10T1/2-tva-H1047R specific cell index drop | not present in the control cell line 10T1/2-tva | 
25 | N#CC(=C(/N)Sc1ccccc1N)/C(C#N)=C(\N)Sc1ccccc1N [U0126] | None of these inhibitors induced a TCRP similar to PF2341006 | did not introduce significant cell index changes in either cell line | did not introduce significant cell index changes in either cell line | 
26 | C=CC(=O)Nc1cccc(Oc2nc(Nc3ccc(N4CCN(C)CC4)cc3OC)ncc2Cl)c1 [WZ4002] |  |  |  | IC50 (A431 [2]; A-431, A431 (wild-type EGFR), Long-term (72 hours post compound treatment) CI): 4.37 µM; IC50 (A431 [3]; A-431, A431, inhibitor 1 hour, then EGF 30 ng/ml, Normalized Cell Index at 30 minutes after EGF, estimated, read-out: IC50 (TCRP, ligand stimulated)): ~2 µM; IC50 (H1975 [4]; NCI-H1975, H1975 (mutant L858R/T790M EGFR), 72 hours post compound treatment): 0.56 µM; IC50 (H1975 [1]; [5]): ~1.25 µM
27 | CNC(=O)c1cc(Oc2ccc(NC(=O)Nc3ccc(Cl)c(C(F)(F)F)c3)cc2)ccn1 [sorafenib] |  |  | cell index decreases in both the control cell line and H1047R cell line | TCRP (Cell Index response) (SK-MEL-28): did not affect CI changes that are significantly different from the negative control; TCRP (Cell Index response) (C6; C6): dose-dependent short-term increase (to a various degree) and long-term decrease in Cell Index; IC50 (C6; C6, 96 h): 0.19 µM; TCRP (Cell Index response) (SH-SY5Y): None trigged a TCRP representative to that trigger by ALK inhibitors
28 | CC[C@]1(O)C[C@H]2CN(CCc3c([nH]c4ccccc34)[C@@](C(=O)OC)(c3cc4c(cc3OC)N(C=O)[C@H]3[C@@](O)(C(=O)OC)[C@H](OC(C)=O)[C@]5(CC)C=CCN6CC[C@]43[C@@H]65)C2)C1 [vincristine] |  | cell index decreases in both the control cell line and H1047R cell line | cell index decreases in both the control cell line and H1047R cell line | 
29 | AKT inhibitor IV | None of these inhibitors induced a TCRP similar to PF2341006 |  |  | 
